Experimental data published in patent EP1996603B1, “LIPID A ANTAGONISTS WITH ANTI-SEPTIC SHOCK, ANTI-INFLAMMATORY, ANTI-ISCHEMIA AND ANALGESIC ACTIVITY” (Università Degli Studi Di Milano - Bicocca, priority 2006, dated 2007).

Assays:
Chemical stability = assay type: physicochemical; conditions: N,O acetal group at C6 in Ia
From the text: Reagents and conditions: a) ADMA, CSA, DMF, 94%; b) C14H29Br, NaH, DMF, 74%; c) LiAlH4, AlCl3, CH2Cl2/Et2O, 86%; d) Dess- Martin periodinane, CH2Cl2; e) cyclopentylamine, NaBH3CN, AcOH, CH2Cl2, MeOH, 75% over two steps; f) TFA, CH2Cl2, 80%;g) CH3I, Na2CO3, DMF, 94%; h) O-methylhydroxylamine hydrochloride, pyridine, 65% from 6, i) NaBH3CN, glacial AcOH, 92%; l) TFA, CH2Cl2, 90%, m) DHF, PPTS, CH2Cl2, 65%; n) bromocyclopentane, DIPEA.

BMΦ, BMDC and D1 cells = assay: Lipid A-induced TNFα production in macrophages and dendritic cells (ELISA); assay type: cell-based, Mouse; conditions: for direct inflammatory function (stimulating cytokines production): cells treated with compound alone, without lipid A
Description: BMΦ and DC were derived from bone marrow cells and divided in two separate cultures. For DC preparation bone marrow cells were cultured in complete IMDM supplemented with 10% supernatant of GM-CSF-transduced B16 tumor cells [R. Soiffer, T. Lynch, M. Mihm, K. Jung, C. Rhuda, J. C. Schmollinger, F. S. Hodi, L. Liebster, P. Lam, S. Mentzer, S. Singer, K. K. Tanabe, A. B. Cosimi, R. Duda, A. Sober, A. Bhan, J. Daley, D. Neuberg, G. Parry, J. Rokovich, L. Richards, J. Drayer, A. Berns, S. Clift, L. K. Cohen, R. C. Mulligan, G. Dranoff, Proc. Natl. Acad. Sci. U S A. 1998, 95(22), 13141-13146]. Fresh medium was added every 2 d. After 7-10 d of culture, cells were analyzed for CD11c expression and used in assays when 90% were CD11c positive. For BMΦ preparation bone marrow cells were cultured in complete IMDM supplemented with 10% supernatant of M-CSF-transduced NIH3T3 cells. Also in this case, fresh medium was added every 2 d. After 7-10 d of culture, cells were analyzed for Mac1 expression and used in assays when at least 90% were Mac1 positive. D1 cells were cultured in complete IMDM supplemented with 10% supernatant of GM-CSF-transduced B16 tumor cells.
D1 cells, BMDC and MΦ were plated in 48 well plates at a concentration of 200000 cells/well in 200µL of medium. One or two hours after plating they were treated with different amounts of compounds Ic and Id for 30 min and then stimulated with Lipid A from Escherichia coli (F583, Rd mutant Sigma, 0.5µM) for 18 h.
Given the pivotal role of early-activated DC and MΦ in directing inflammatory reactions, compounds Ia, Ic and Id were tested for their ability to antagonize the stimulatory activity of lipid A on bone marrow derived macrophages (BMΦ) and DC (BMDC) by interfering with their capacity to induce TNFα production. As source of DC, D1 cells, a long term growth factor (GM-CSF)-dependent DC line [C. Winzler et al. J. Exp. Med. 1997, 185, 317-327] were also used. BMΦ, BMDC and D1 cells were stimulated with lipid A (0.5 µM) after a pre-exposure to compounds Ia, Ic and Id and the amount of TNFα released in the supernatant was measured by ELISA.

SMILES | chemical stability (Chemical stability) | direct inflammatory function (stimulating cytokines production) (BMΦ, BMDC and D1 cells) | relative potency as inhibitor of lipid A (BMΦ, BMDC and D1 cells; comparison between compounds Ia, Ic and Id) | TNFα production (BMΦ, BMDC and D1 cells; stimulation with lipid A (0.5 µM) after pre-exposure to compound, TNFα released in the supernatant measured by ELISA, BMΦ, BMDC and D1 cells)
CCCCCCCCCCCCCCO[C@H]1[C@@H](OC)O[C@H](CN(OC)C2CCCO2)[C@@H](O)[C@@H]1OCCCCCCCCCCCCCC (stereo partly drawn) [Compound Ia, methyl 6-deoxy-6-[N-(1'-tetrahydrofuranyl)-N'-methoxyamino)-2,3-di-O-tetradecyl-α-D-glucopyranoside] | chemically unstable | did not show any direct inflammatory function | – | –
CCCCCCCCCCCCCCO[C@H]1[C@@H](OC)O[C@H](CNC2CCCC2)[C@@H](O)[C@@H]1OCCCCCCCCCCCCCC [Ic, methyl 6-deoxy-6-cyclopentylamino-2,3-di-O-tetradecyl-α-D-glucopyranoside] | – | did not show any direct inflammatory function | a better inhibitor than Ia | interfered with lipid A's action in a dose-dependent manner
CCCCCCCCCCCCCCO[C@H]1[C@@H](OC)O[C@H](CN(OC)C2CCCC2)[C@@H](O)[C@@H]1OCCCCCCCCCCCCCC [Ib, methyl 6-deoxy-6-[N-(cyclopentyl)-N'-methoxyamino)-2,3-di-O-tetradecyl-α-D-glucopyranoside] | more stable than compound (Ia) | – | – | –
